Test results from PubChem BioAssay (NCI).
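Interpolation was linear, between the two tested concentrations surrounding the appropriate level; five concentrations were tested over 48 hours in 96-well plates. TGI marks complete inhibition of growth.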

Experiments:
Experiment in all cases: NCI-60 cell line screen, 48 h
SF-268 CNS = test system: SF-268 CNS
K-562 leukemia = test system: K-562 leukemia
HCC-2998 colon = test system: HCC-2998 colon
EKVX NSCLC = test system: EKVX NSCLC
HOP-62 NSCLC = test system: HOP-62 NSCLC
SK-MEL-5 melanoma = test system: SK-MEL-5 melanoma
SK-OV-3 ovarian = test system: SK-OV-3 ovarian
M14 melanoma = test system: M14 melanoma
OVCAR-8 ovarian = test system: OVCAR-8 ovarian
HOP-92 NSCLC = test system: HOP-92 NSCLC
SW-620 colon = test system: SW-620 colon
TK-10 renal = test system: TK-10 renal
HT29 colon = test system: HT29 colon
LOX IMVI melanoma = test system: LOX IMVI melanoma
OVCAR-5 ovarian = test system: OVCAR-5 ovarian
DLD-1 colon = test system: DLD-1 colon
DMS 273 small cell lung = test system: DMS 273 small cell lung
OVCAR-3 ovarian = test system: OVCAR-3 ovarian
CCRF-CEM leukemia = test system: CCRF-CEM leukemia
DMS 114 small cell lung = test system: DMS 114 small cell lung
MOLT-4 leukemia = test system: MOLT-4 leukemia
ACHN renal = test system: ACHN renal
786-0 renal = test system: 786-0 renal
SNB-75 CNS = test system: SNB-75 CNS
NCI-H226 lung = test system: NCI-H226 lung
HCT-15 colon = test system: HCT-15 colon
SF-295 CNS = test system: SF-295 CNS
A498 renal = test system: A498 renal
NCI-H460 lung = test system: NCI-H460 lung
SK-MEL-28 melanoma = test system: SK-MEL-28 melanoma
UO-31 renal = test system: UO-31 renal
SK-MEL-2 melanoma = test system: SK-MEL-2 melanoma
CAKI-1 renal = test system: CAKI-1 renal
RXF 393 renal = test system: RXF 393 renal
NCI-H522 lung = test system: NCI-H522 lung
NCI-H23 lung = test system: NCI-H23 lung
UACC-257 melanoma = test system: UACC-257 melanoma
LXFL 529 NSCLC = test system: LXFL 529 NSCLC
UACC-62 melanoma = test system: UACC-62 melanoma
MALME-3M melanoma = test system: MALME-3M melanoma
SR leukemia = test system: SR leukemia
KM12 colon = test system: KM12 colon
A549 NSCLC = test system: A549 NSCLC
SF-539 CNS = test system: SF-539 CNS
HCT-116 colon = test system: HCT-116 colon
OVCAR-4 ovarian = test system: OVCAR-4 ovarian
SN12C renal = test system: SN12C renal
U251 CNS = test system: U251 CNS
SNB-78 CNS = test system: SNB-78 CNS
IGROV1 ovarian = test system: IGROV1 ovarian
COLO 205 colon = test system: COLO 205 colon
HL-60(TB) leukemia = test system: HL-60(TB) leukemia
RPMI-8226 leukemia = test system: RPMI-8226 leukemia
SNB-19 CNS = test system: SNB-19 CNS
M19-MEL melanoma = test system: M19-MEL melanoma
HOP-18 NSCLC = test system: HOP-18 NSCLC

`C=C1C(=O)OC2/C=C(\C)C3OC3/C=C(/C(=O)OC)C(O)C(OC(=O)C3(C)OC3C)C12` (centres undefined) showed a TGI (SF-268 CNS) of 29.9 µM, a TGI (K-562 leukemia) of 14.3 µM and a TGI (HCC-2998 colon) of 4.66 µM. The TGI (EKVX NSCLC) was 7.44 µM, the TGI (HOP-62 NSCLC) was 35.8 µM and the TGI (SK-MEL-5 melanoma) was 3.42 µM. The TGI (SK-OV-3 ovarian) was 26.4 µM, the TGI (M14 melanoma) was 4.7 µM and the TGI (OVCAR-8 ovarian) was 5.85 µM. It also gave a TGI (HOP-92 NSCLC) of 5.68 µM, a TGI (SW-620 colon) of 3.1 µM and a TGI (TK-10 renal) of 9.14 µM. The TGI (HT29 colon) was 3.63 µM, the TGI (LOX IMVI melanoma) was 3.75 µM and the TGI (OVCAR-5 ovarian) was 30.4 µM. The TGI (DLD-1 colon) was 2.94 µM, the TGI (DMS 273 small cell lung) was 3.02 µM and the TGI (OVCAR-3 ovarian) was 10 µM. It also gave a TGI (CCRF-CEM leukemia) of 2.63 µM, a TGI (DMS 114 small cell lung) of 1.94 µM and a TGI (MOLT-4 leukemia) of 4.05 µM. For the same compound, the TGI (ACHN renal) was 10.7 µM, the TGI (786-0 renal) was 3.26 µM and the TGI (SNB-75 CNS) was 26.3 µM. It also gave a TGI (NCI-H226 lung) of 32.2 µM, a TGI (HCT-15 colon) of 3.78 µM and a TGI (SF-295 CNS) of 27 µM. The TGI (A498 renal) was 19.6 µM, the TGI (NCI-H460 lung) was 17.8 µM and the TGI (SK-MEL-28 melanoma) was 3.17 µM. For the same compound, the TGI (UO-31 renal) was 27.3 µM, the TGI (SK-MEL-2 melanoma) was 6.46 µM and the TGI (CAKI-1 renal) was 4.97 µM. It also gave a TGI (RXF 393 renal) of 2.22 µM, a TGI (NCI-H522 lung) of 0.6 µM and a TGI (NCI-H23 lung) of 3.5 µM. For the same compound, the TGI (UACC-257 melanoma) was 3.45 µM, the TGI (LXFL 529 NSCLC) was 2.8 µM and the TGI (UACC-62 melanoma) was 5.19 µM. It also gave a TGI (MALME-3M melanoma) of 3.21 µM, a TGI (SR leukemia) of 3.05 µM and a TGI (KM12 colon) of 11.2 µM. The TGI (A549 NSCLC) was 32 µM, the TGI (SF-539 CNS) was 5.46 µM and the TGI (HCT-116 colon) was 2.43 µM. The TGI (OVCAR-4 ovarian) was 8.77 µM, the TGI (SN12C renal) was 5.64 µM and the TGI (U251 CNS) was 16.8 µM. It also gave a TGI (SNB-78 CNS) of 3.97 µM, a TGI (IGROV1 ovarian) of 8.45 µM and a TGI (COLO 205 colon) of 2.52 µM.

For `Cc1c(-c2ccccc2)c(=O)oc2ccc(Cl)cc12`, the TGI (SF-268 CNS) was > 100 µM, the TGI (K-562 leukemia) was > 100 µM and the TGI (HCC-2998 colon) was > 100 µM. For the same compound, the TGI (EKVX NSCLC) was > 100 µM, the TGI (HOP-62 NSCLC) was > 100 µM and the TGI (SK-MEL-5 melanoma) was > 100 µM. The TGI (HL-60(TB) leukemia) was > 100 µM, the TGI (SK-OV-3 ovarian) was > 100 µM and the TGI (M14 melanoma) was > 100 µM. The TGI (OVCAR-8 ovarian) was > 100 µM, the TGI (HOP-92 NSCLC) was > 100 µM and the TGI (SW-620 colon) was > 100 µM. For the same compound, the TGI (TK-10 renal) was > 100 µM, the TGI (HT29 colon) was > 100 µM and the TGI (LOX IMVI melanoma) was > 100 µM. The TGI (OVCAR-5 ovarian) was > 100 µM, the TGI (DLD-1 colon) was > 100 µM and the TGI (DMS 273 small cell lung) was > 100 µM. For the same compound, the TGI (OVCAR-3 ovarian) was > 100 µM, the TGI (CCRF-CEM leukemia) was > 100 µM and the TGI (DMS 114 small cell lung) was > 100 µM. The TGI (MOLT-4 leukemia) was > 100 µM, the TGI (786-0 renal) was > 100 µM and the TGI (SNB-75 CNS) was 43.7 µM. The TGI (NCI-H226 lung) was > 100 µM, the TGI (HCT-15 colon) was > 100 µM and the TGI (SF-295 CNS) was > 100 µM. For the same compound, the TGI (A498 renal) was > 100 µM, the TGI (RPMI-8226 leukemia) was > 100 µM and the TGI (NCI-H460 lung) was > 100 µM. For the same compound, the TGI (SK-MEL-28 melanoma) was > 100 µM, the TGI (UO-31 renal) was > 100 µM and the TGI (SK-MEL-2 melanoma) was > 100 µM. The TGI (SNB-19 CNS) was > 100 µM, the TGI (M19-MEL melanoma) was > 100 µM and the TGI (NCI-H522 lung) was > 100 µM. The TGI (NCI-H23 lung) was > 100 µM, the TGI (UACC-257 melanoma) was > 100 µM and the TGI (LXFL 529 NSCLC) was > 100 µM. For the same compound, the TGI (UACC-62 melanoma) was > 100 µM, the TGI (MALME-3M melanoma) was > 100 µM and the TGI (SR leukemia) was > 100 µM. For the same compound, the TGI (KM12 colon) was > 100 µM, the TGI (A549 NSCLC) was > 100 µM and the TGI (SF-539 CNS) was > 100 µM. The TGI (HCT-116 colon) was > 100 µM, the TGI (HOP-18 NSCLC) was > 100 µM and the TGI (OVCAR-4 ovarian) was > 100 µM. For the same compound, the TGI (SN12C renal) was > 100 µM, the TGI (U251 CNS) was > 100 µM and the TGI (SNB-78 CNS) was > 100 µM. For the same compound, the TGI (IGROV1 ovarian) was > 100 µM and the TGI (COLO 205 colon) was > 100 µM.
